Measurements: patent publication US9708247B2, “Modulators of the eIF2alpha pathway” (The Regents of the University of California, priority 2013, dated 2017)
Entries after “also recorded” stand apart in the source; their conditions may differ.

Experiments:
[1] = test system: mouse embryonic fibroblasts (MEFs); assay: Polysome gradient analysis in MEFs; format: cell-based
Procedure: Mouse Embryonic Fibroblasts (MEFs) or TREx-293 cells expressing eIF2α(S51D) were seeded on 150 mm plates and allowed to grow to 80% confluence. Cells were then induced with 25 nM doxycycline for 14 h and subsequently treated with the appropriate compounds for the indicated times. 100 μg/ml of cycloheximide was added to the cells for 1 min before lysis. Cells were washed twice with PBS supplemented with 100 μg/ml cycloheximide and subsequently lysed in 20 mM Tris pH 7.4, 200 mM NaCl, 15 mM MgCl, 1 mM DTT, 8% Glycerol, 100 μg/ml cycloheximide, 1% Triton X-100 and EDTA-free protease inhibitor tablets (Roche). Cells were scraped, collected, triturated with a 25^7/8 gauge needle, and the homogenate was centrifuged for 10 min at 10,000×g. The supernatant was loaded on a 10-50% sucrose gradient and sedimented in a SW40 rotor at 150,000×g for 2.4 h. The gradients were fractionated using a piston gradient fractionator (BioComp) and UV absorbance at 254 nm was monitored using a UV-Monitor (BioRad).

RPMI 8226 cells = assay: Multiple myeloma xenograft model (RPMI 8226, BALB/c scid mice); format: in vivo, mouse; conditions: 5 mg/kg orally, daily
CHOP and GADD34 mRNA = assay: qRT-PCR of CHOP and GADD34 mRNA in U2OS cells; format: cell-based, human; conditions: 2 μg/ml tunicamycin, 200 nM ISRIB
Procedure: FIGS. 4A-4B. ISRIB impairs induction of the transcriptional network controlled by ATF4; (FIG. 4A) ER-stress dependent induction of CHOP and GADD34 mRNA is impaired in cells treated with ISRIB; qPCR analysis of total RNA extracted from U2OS cells treated with 2 μg/ml of tunicamycin in the presence or absence of 200 nM ISRIB for the indicated times; mRNA levels for each sample were normalized to GAPDH (N=4); P values are derived from a one tail Student's t-test for unpaired samples; statistical significance: CHOP, P=0.0006 (*); GADD34, P=0.0008 (*); (FIG. 4B) ISRIB blocks CHOP production during ER stress; an immunofluorescence analysis of U2OS cells treated with 100 nM thapsigargin for 2 h in the presence or absence of 200 nM ISRIB is shown; a secondary Alexa Dye 488 anti-mouse antibody and rhodamine-phalloidin were used to visualize CHOP and actin, respectively.
U2OS cells were plated on 96 well plates and allowed to recover overnight. Cells were treated for the indicated times with the indicated compounds, lysed and cDNA was synthesized using the PowerSYBR Green Cells-to-CT kit (Ambion) following the manufacturer's recommendations. The reactions were ran in an Opticon 2 thermal cycler (BioRad) and analyzed with the Opticon Monitor v3 software (BioRad). […]

[2] = test system: PERK signaling (ATF4, PERK, XBP1s); assay: Immunoblot analysis of PERK, ATF4 and XBP1s in HEK293T cells; format: cell-based, human
Procedure: Cells were lysed in SDS-PAGE loading buffer (1% SDS, 62.5 mM Tris-HCl pH 6.8, 10% glycerol). Lysates were sonicated and equal amounts were loaded on SDS-PAGE gels (BioRad). Proteins were transferred onto nitrocellulose and probed with primary antibodies diluted in Tris-buffered saline supplemented with 0.1% Tween 20 and 5% bovine serum albumin. The following antibodies were used: CREB-2 (C-20) (1:800) (Santa Cruz Biotechnologies); PERK (D11A8) (1:1000), PERK (C33E10) (1:1000), eIF2α (9722) (1:1000), phospho-eIF2α (Ser51) (D9G8) XP (3398) (1:1000) (Cell Signaling Technology); XBP1s (C-terminus) (1:500) (BioLegend); M2 Flag (1:1000) (Sigma). An HRP-conjugated secondary antibody (Amersham) was employed to detect immune-reactive bands using enhanced chemiluminescence (SuperSignal, Thermo Scientific).

SMILES: O=C(COc1ccc(Cl)cc1)NC1CCC(NC(=O)COc2ccc(Cl)cc2)CC1 (stereo not drawn) [ISRIB]
- translational attenuation by Torin-1 (CAP-dependent initiation) ([1]; 750 nM torin-1, 200 nM ISRIB, 2 h): did not reverse the effect of Torin-1 on translation
- ER stress-induced increase in 80S monosomes at the expense of polyribosomes ([1]; 2 μg/ml tunicamycin, 200 nM ISRIB, 1 h): reversed (at least partially)
- tumor growth / tumor size vs vehicle (in words) (RPMI 8226 cells): significant difference in tumor size; also recorded: significant reduction in the rate of tumor growth
- reduction in tumor size at the endpoint of the study (RPMI 8226 cells; 26 days of dosing): 50%
- induction of GADD34 and CHOP mRNAs (CHOP and GADD34 mRNA): significantly reduced their induction
- XBP1 mRNA splicing and XBP1s production (IRE1 branch) ([2]; ER stress plus 200 nM ISRIB): persisted
- PERK phosphorylation (mobility shift) ([2]; ER-stressed HEK293T, 200 nM ISRIB): did not inhibit the mobility shift of PERK
- ATF4 induction after GCN2 or HRI activation ([2]; HEK293T, cysteine/methionine starvation or HRI activator 6 μM, 5 h, 200 nM ISRIB): blocked ATF4 induction
- production of endogenous ATF4 upon ER stress ([2]; HEK293T, tunicamycin or thapsigargin, 200 nM ISRIB, 3 h): blocked production of endogenous ATF4
